Measured values taken from patent US20230227427A1, “IL-17A MODULATORS” (SANOFI, priority 2010, published 2023).

Target: T1, human recombinant IL-17A (Homo sapiens, UniProt Q16552)
T1 construct: purchased R&D Systems 7955-IL/CF
T1 sequence (Q16552 24-155): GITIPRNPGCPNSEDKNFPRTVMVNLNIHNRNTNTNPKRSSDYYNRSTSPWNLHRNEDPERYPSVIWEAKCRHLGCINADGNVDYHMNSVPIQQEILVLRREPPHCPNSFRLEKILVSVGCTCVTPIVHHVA
Test: IL-17A AlphaLISA assay (block binding of IL-17A to its receptor IL-17RA)
Conditions: compounds pre-incubated with the IL-17A for 24 h at room temperature; read-out: AlphaLISA pIC50 (converted)
Summary of the method: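 Compounds pre-incubated 24 h at RT (30 min where flagged) with human IL-17A (7.5 nM stock) before IL-17RA/Fc (5 nM stock), 90 min. Read by AlphaLISA via anti-Fc acceptor and biotin anti-IL-17A/streptavidin donor beads, 680/615 nm. 4-parameter fit; DMSO and 6 μM reference inhibitor as controls; pIC50.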

IC50 | SMILES
15.8 nM | Cn1nccc1C(=O)N[C@H](C(=O)Nc1ccc(-c2cccc(=O)n2C)c(F)c1)C(c1ccccc1)c1ccccc1 [Example 71, (S)—N-(1-((3-fluoro-4-(1-methyl-6-oxo-1,6-dihydropyridin-2-yl)phenyl)amino)-1-oxo-3,3-diphenylpropan-2-yl)-1-methyl-1H-pyrazole-5-carboxamide]
79.4 nM | Cc1c(-c2ccc(NC(=O)[C@@H](NC(=O)c3ccnn3C)C(c3ccccc3)c3ccccc3)nc2)ccc(=O)n1C [Example 72, (S)—N-(1-((1′,2′-dimethyl-6′-oxo-1′,6′-dihydro-[3,3′-bipyridin]-6-yl)amino)-1-oxo-3,3-diphenylpropan-2-yl)-1-methyl-1H-pyrazole-5-carboxamide]
25.1 nM | Cc1cncc(C)c1-c1ccc(NC(=O)[C@@H](NC(=O)c2ccnn2C)C(c2ccccc2)c2ccccc2)nc1 [Example 73, (S)—N-(1-((3′,5′-dimethyl-[3,4′-bipyridin]-6-yl)amino)-1-oxo-3,3-diphenylpropan-2-yl)-1-methyl-1H-pyrazole-5-carboxamide]
31.6 nM | Cc1[nH]ncc1-c1ccc(NC(=O)[C@@H](NC(=O)c2ccnn2C)C(c2ccccc2)c2ccccc2)cc1 [Example 74, (S)-1-methyl-N-(1-((4-(5-methyl-1H-pyrazol-4-yl)phenyl)amino)-1-oxo-3,3-diphenylpropan-2-yl)-1H-pyrazole-5-carboxamide]
31.6 nM | Cn1nccc1C(=O)N[C@H](C(=O)Nc1ccc(-c2cn(C)c(=O)c3[nH]ncc23)c(F)c1)C(c1ccccc1)c1ccccc1 [Example 75, (S)—N-(1-((3-fluoro-4-(6-methyl-7-oxo-6,7-dihydro-1H-pyrazolo[3,4-c]pyridin-4-yl)phenyl)amino)-1-oxo-3,3-diphenylpropan-2-yl)-1-methyl-1H-pyrazole-5-carboxamide]
631 nM | COc1ncc(-c2ccc(NC(=O)[C@@H](NC(=O)c3ccnn3C)C(c3ccccc3)c3ccccc3)cc2)c2cc[nH]c12 [Example 76, (S)—N-(1-((4-(7-methoxy-1H-pyrrolo[2,3-c]pyridin-4-yl)phenyl)amino)-1-oxo-3,3-diphenylpropan-2-yl)-1-methyl-1H-pyrazole-5-carboxamide]
126 nM | Cn1nccc1C(=O)N[C@H](C(=O)Nc1ccc(-c2cccc(=O)[nH]2)c(F)c1)C(c1ccccc1)c1ccccc1 [Example 77, (S)—N-(1-((3-fluoro-4-(6-oxo-1,6-dihydropyridin-2-yl)phenyl)amino)-1-oxo-3,3-diphenylpropan-2-yl)-1-methyl-1H-pyrazole-5-carboxamide]
25.1 nM | Cn1nccc1C(=O)N[C@H](C(=O)Nc1ccc(-c2ccncc2CC(=O)N2CCCC2)cc1)C(c1ccccc1)c1ccccc1 [Example 78, (S)-1-methyl-N-(1-oxo-1-((4-(3-(2-oxo-2-(pyrrolidin-1-yl)ethyl)pyridin-4-yl)phenyl)amino)-3,3-diphenylpropan-2-yl)-1H-pyrazole-5-carboxamide]
251 nM | Cn1nccc1C(=O)N[C@H](C(=O)Nc1ccc(-c2cc[n+]([O-])cc2CC(=O)N2CCCC2)cc1)C(c1ccccc1)c1ccccc1 [Example 79, (S)-4-(4-(2-(1-methyl-1H-pyrazole-5-carboxamido)-3,3-diphenylpropanamido)phenyl)-3-(2-oxo-2-(pyrrolidin-1-yl)ethyl)pyridine 1-oxide]
316 nM | Cn1nccc1C(=O)N[C@H](C(=O)Nc1ccc(-c2cc(=O)[nH]cn2)c(F)c1)C(c1ccccc1)c1ccccc1 [Example 80, (S)—N-(1-((3-fluoro-4-(6-oxo-1,6-dihydropyrimidin-4-yl)phenyl)amino)-1-oxo-3,3-diphenylpropan-2-yl)-1-methyl-1H-pyrazole-5-carboxamide]
12.6 nM | Cn1nccc1C(=O)N[C@H](C(=O)Nc1ccc(C2=CCOCC2)cc1)C(c1ccccc1)c1ccccc1 [Example 81, (S)—N-(1-((4-(3,6-dihydro-2H-pyran-4-yl)phenyl)amino)-1-oxo-3,3-diphenylpropan-2-yl)-1-methyl-1H-pyrazole-5-carboxamide]
25.1 nM | COc1cnccc1-c1ccc(NC(=O)C(NC(=O)c2ccnn2C)C2c3ccccc3-c3ccccc32)cc1 (centres unmarked) [Example 82, N-(1-(9H-fluoren-9-yl)-2-((4-(3-methoxypyridin-4-yl)phenyl)amino)-2-oxoethyl)-1-methyl-1H-pyrazole-5-carboxamide]
63.1 nM | Cc1c(-c2ccc(NC(=O)[C@@H](NC(=O)c3ccnn3C)[C@H]3CC[C@H](C)CC3)cc2F)ccc(=O)n1C [Example 83, N—((S)-2-((4-(1,2-Dimethyl-6-oxo-1,6-dihydropyridin-3-yl)-3-fluorophenyl)amino)-1-((1r,4S)-4-methylcyclohexyl)-2-oxoethyl)-1-methyl-1H-pyrazole-5-carboxamide]
31.6 nM | Cc1n[nH]c(C)c1-c1ccc(NC(=O)[C@@H](NC(=O)c2ccnn2C)[C@H]2CC[C@H](C)CC2)cc1 [Example 84, N—((S)-2-((4-(3,5-Dimethyl-1H-pyrazol-4-yl)phenyl)amino)-1-((1r,4S)-4-methylcyclohexyl)-2-oxoethyl)-1-methyl-1H-pyrazole-5-carboxamide]
63.1 nM | Cn1nccc1C(=O)N[C@H](C(=O)Nc1ccc(-c2c[nH]c(=O)c3[nH]ccc23)cc1)[C@H]1CC[C@H](C)CC1 [Example 85, 1-Methyl-N—((S)-1-((1r,4S)-4-methylcyclohexyl)-2-oxo-2-((4-(7-oxo-6,7-dihydro-1H-pyrrolo[2,3-c]pyridin-4-yl)phenyl)amino)ethyl)-1H-pyrazole-5-carboxamide]
251 nM | Cn1nccc1C(=O)N[C@H](C(=O)Nc1ccc(-c2ccncc2CC(=O)N2CCCC2)cc1)[C@H]1CC[C@H](C)CC1 [Example 86, 1-Methyl-N—((S)-1-((1r,4S)-4-methylcyclohexyl)-2-oxo-2-((4-(3-(2-oxo-2-(pyrrolidin-1-yl)ethyl)pyridin-4-yl)phenyl)amino)ethyl)-1H-pyrazole-5-carboxamide]
501 nM | Cn1nccc1C(=O)N[C@H](C(=O)Nc1ccc(-c2cc[nH]c(=O)c2)cc1)[C@H]1CC[C@H](C)CC1 [Example 87, 1-Methyl-N—((S)-1-((1r,4S)-4-methylcyclohexyl)-2-oxo-2-((4-(2-oxo-1,2-dihydropyridin-4-yl)phenyl)amino)ethyl)-1H-pyrazole-5-carboxamide]
398 nM | Cn1nccc1C(=O)N[C@H](C(=O)Nc1ccc(-c2cccc3nccn23)cc1)[C@H]1CC[C@H](C)CC1 [Example 88, N—((S)-2-((4-(Imidazo[1,2-a]pyridin-5-yl)phenyl)amino)-1-((1r,4S)-4-methylcyclohexyl)-2-oxoethyl)-1-methyl-1H-pyrazole-5-carboxamide]
63.1 nM | Cc1cncc(C)c1-c1ccc(NC(=O)[C@@H](NC(=O)c2ccnn2C)[C@H]2CC[C@H](C)CC2)nc1 [Example 90, N—((S)-2-((3′,5′-Dimethyl-[3,4′-bipyridin]-6-yl)amino)-1-((1r,4S)-4-methylcyclohexyl)-2-oxoethyl)-1-methyl-1H-pyrazole-5-carboxamide]
251 nM | CCn1nccc1C(=O)N[C@H](C(=O)Nc1ccc(-c2ccc(=O)n(C)c2C)cn1)[C@H]1CC[C@H](C)CC1 [Example 91, N—((S)-2-((1′,2′-Dimethyl-6′-oxo-1′,6′-dihydro-[3,3′-bipyridin]-6-yl)amino)-1-((1r,4S)-4-methylcyclohexyl)-2-oxoethyl)-1-ethyl-1H-pyrazole-5-carboxamide]
